Data published in patent US12655175B2, “C17, C20, and C21 substituted neuroactive steroids and their methods of use” (Sage Therapeutics, LLC, priority 2016, dated 2026).
pIC50: −log10 of the molar value.

Molecular target: GABAA receptor
Test: Steroid inhibition of [35S]-TBPS binding
Settings: rat brain cortical membranes, 3 nM [35S]-TBPS, in the presence of 5 mM GABA
Procedure: Steroid Inhibition of TBPS Binding
Briefly, cortices are rapidly removed following decapitation of carbon dioxide-anesthetized Sprague-Dawley rats ([…]). The cortices are homogenized in 10 volumes of ice-cold 0.32 M sucrose using a glass/teflon homogenizer and centrifuged at 1500×g for 10 min at 4° C. The resultant supernatants are centrifuged at 10,000×g for 20 min at 4° C. to obtain the P2 pellets. The P2 pellets are resuspended in 200 mM NaCl/50 mM Na—K phosphate pH 7.4 buffer and centrifuged at 10,000×g for 10 min at 4° C. This washing procedure is repeated twice and the pellets are resuspended in 10 volumes of buffer. Aliquots ([…]) of the membrane suspensions are incubated with 3 nM [^35S]-TBPS and […] aliquots of test drug dissolved in dimethyl sulfoxide (DMSO) (final 0.5%) in the presence of 5 mM GABA. The incubation is brought to a final volume of 1.0 mL with buffer. […] Following a 90 min incubation at room temp, the assays are terminated by filtration through glass fiber filters (Schleicher and Schuell No. 32) using a cell harvester (Brandel) and rinsed three times with ice-cold buffer. Filter bound radioactivity is measured by liquid scintillation spectrometry. Non-linear curve fitting of the overall data for each drug averaged for each concentration is done using Prism (GraphPad).
Various compounds are or can be screened to determine their potential as modulators of [^35S]-TBPS binding in vitro. These assays are or can be performed in accordance with the above discussed procedures.

C[C@@]1(O)CC[C@H]2[C@H](CC[C@@H]3[C@@H]2CC[C@]2(C)[C@@H](C(=O)NCC4CCCCC4)CC[C@@H]32)C1 [Compound 17]
pIC50: 6.30 to 7.00

CN(CCc1ccccc1)C(=O)[C@H]1CC[C@H]2[C@@H]3CC[C@@H]4C[C@](C)(O)CC[C@@H]4[C@H]3CC[C@]12C [Compound 18]
pIC50: 7.00 to 7.30

C[C@@]1(O)CC[C@H]2[C@H](CC[C@@H]3[C@@H]2CC[C@]2(C)[C@@H](C(=O)NCCc4ccccc4)CC[C@@H]32)C1 [Compound 19]
pIC50: 6.30 to 7.00

C[C@@H](NC(=O)[C@H]1CC[C@H]2[C@@H]3CC[C@@H]4C[C@](C)(O)CC[C@@H]4[C@H]3CC[C@]12C)c1ccccc1 [Compound 20]
pIC50: 6.30 to 7.00

C[C@@H](c1ccccc1)N(C)C(=O)[C@H]1CC[C@H]2[C@@H]3CC[C@@H]4C[C@](C)(O)CC[C@@H]4[C@H]3CC[C@]12C [Compound 21]
pIC50: 7.30 to 8.00

CN(Cc1ccccn1)C(=O)[C@H]1CC[C@H]2[C@@H]3CC[C@@H]4C[C@](C)(O)CC[C@@H]4[C@H]3CC[C@]12C [Compound 22]
pIC50: < 6.30

C[C@@]1(O)CC[C@H]2[C@H](CC[C@@H]3[C@@H]2CC[C@]2(C)[C@@H](C(=O)N4CCCCCC4)CC[C@@H]32)C1 [Compound 23]
pIC50: 6.30 to 7.00

C[C@@]1(O)CC[C@H]2[C@H](CC[C@@H]3[C@@H]2CC[C@]2(C)[C@@H](C(=O)NCC4CCOCC4)CC[C@@H]32)C1 [Compound 24]
pIC50: < 6.30

C[C@@H]1CCCCN1C(=O)[C@H]1CC[C@H]2[C@@H]3CC[C@@H]4C[C@](C)(O)CC[C@@H]4[C@H]3CC[C@]12C [Compound 25]
pIC50: 6.30 to 7.00

CN(CC1CCCCC1)C(=O)[C@H]1CC[C@H]2[C@@H]3CC[C@@H]4C[C@](C)(O)CC[C@@H]4[C@H]3CC[C@]12C [Compound 26]
pIC50: 6.30 to 7.00

C[C@H](NC(=O)[C@H]1CC[C@H]2[C@@H]3CC[C@@H]4C[C@](C)(O)CC[C@@H]4[C@H]3CC[C@]12C)c1ccccc1 [Compound 27]
pIC50: 6.30 to 7.00

C[C@H]1CCCCN1C(=O)[C@H]1CC[C@H]2[C@@H]3CC[C@@H]4C[C@](C)(O)CC[C@@H]4[C@H]3CC[C@]12C [Compound 28]
pIC50: 6.30 to 7.00

C[C@@]1(O)CC[C@H]2[C@H](CC[C@@H]3[C@@H]2CC[C@]2(C)[C@@H](C(=O)NC4CCOCC4)CC[C@@H]32)C1 [Compound 29]
pIC50: < 6.30

C[C@@]1(O)CC[C@H]2[C@H](CC[C@@H]3[C@@H]2CC[C@]2(C)[C@@H](C(=O)N4CC[C@@H](c5ccccc5)C4)CC[C@@H]32)C1 [Compound 30]
pIC50: 6.30 to 7.00

C[C@@]1(O)CC[C@H]2[C@H](CC[C@@H]3[C@@H]2CC[C@]2(C)[C@@H](C(=O)N4CC[C@H](c5ccccc5)C4)CC[C@@H]32)C1 [Compound 31]
pIC50: 7.00 to 7.30

C[C@H](c1ccccc1)N(C)C(=O)[C@H]1CC[C@H]2[C@@H]3CC[C@@H]4C[C@](C)(O)CC[C@@H]4[C@H]3CC[C@]12C [Compound 32]
pIC50: 7.30 to 8.00

C[C@@]1(O)CC[C@H]2[C@H](CC[C@@H]3[C@@H]2CC[C@]2(C)[C@@H](C(=O)N4CCCc5ccccc54)CC[C@@H]32)C1 [Compound 35]
pIC50: 6.30 to 7.00

C[C@@]1(O)CC[C@H]2[C@H](CC[C@@H]3[C@@H]2CC[C@]2(C)[C@@H](C(=O)Nc4ccc(F)cc4C#N)CC[C@@H]32)C1 [Compound 37]
pIC50: 7.30 to 8.00

C[C@@]1(O)CC[C@H]2[C@H](CC[C@@H]3[C@@H]2CC[C@]2(C)[C@@H](C(=O)CNc4ccccc4)CC[C@@H]32)C1 [Compound 38]
pIC50: > 8.00

CN(CC(=O)[C@H]1CC[C@H]2[C@@H]3CC[C@@H]4C[C@](C)(O)CC[C@@H]4[C@H]3CC[C@]12C)c1ccccc1 [Compound 39]
pIC50: 7.00 to 7.30

C[C@@]1(O)CC[C@H]2[C@H](CC[C@@H]3[C@@H]2CC[C@]2(C)[C@@H](C(=O)CNc4ccc(F)cc4)CC[C@@H]32)C1 [Compound 40]
pIC50: > 8.00

C[C@@]1(O)CC[C@H]2[C@H](CC[C@@H]3[C@@H]2CC[C@]2(C)[C@@H](C(=O)CNc4cccc(F)c4)CC[C@@H]32)C1 [Compound 41]
pIC50: > 8.00

CN(CC(=O)[C@H]1CC[C@H]2[C@@H]3CC[C@@H]4C[C@](C)(O)CC[C@@H]4[C@H]3CC[C@]12C)c1cccc(F)c1 [Compound 42]
pIC50: 7.30 to 8.00

CN(CC(=O)[C@H]1CC[C@H]2[C@@H]3CC[C@@H]4C[C@](C)(O)CC[C@@H]4[C@H]3CC[C@]12C)c1ccc(F)cc1 [Compound 43]
pIC50: 7.30 to 8.00

CCOC[C@@]1(O)CC[C@H]2[C@H](CC[C@@H]3[C@@H]2CC[C@]2(C)[C@@H](C(=O)N4CCc5ccccc5C4)CC[C@@H]32)C1 [Compound 44]
pIC50: 7.00 to 7.30

CCOC[C@@]1(O)CC[C@H]2[C@H](CC[C@@H]3[C@@H]2CC[C@]2(C)[C@@H](C(=O)N[C@H](C)c4ccc(C#N)cc4)CC[C@@H]32)C1 [Compound 48]
pIC50: 6.30 to 7.00

CCOC[C@@]1(O)CC[C@H]2[C@H](CC[C@@H]3[C@@H]2CC[C@]2(C)[C@@H](C(=O)N(C)[C@H](C)c4ccc(C#N)cc4)CC[C@@H]32)C1 [Compound 49]
pIC50: 7.00 to 7.30

CCOC[C@@]1(O)CC[C@H]2[C@H](CC[C@@H]3[C@@H]2CC[C@]2(C)[C@@H](C(=O)N4CCCCC4)CC[C@@H]32)C1 [Compound 50]
pIC50: 6.30 to 7.00

CCOC[C@@]1(O)CC[C@H]2[C@H](CC[C@@H]3[C@@H]2CC[C@]2(C)[C@@H](C(=O)N4CCC[C@H]4c4ncco4)CC[C@@H]32)C1 [Compound 55]
pIC50: < 6.30

CCOC[C@@]1(O)CC[C@H]2[C@H](CC[C@@H]3[C@@H]2CC[C@]2(C)[C@@H](C(=O)N(C)[C@H](CC)c4ccc(F)cc4)CC[C@@H]32)C1 [Compound 56]
pIC50: 6.30 to 7.00

CCOC[C@@]1(O)CC[C@H]2[C@H](CC[C@@H]3[C@@H]2CC[C@]2(C)[C@@H](C(=O)N(C)[C@@H](CC)c4ccc(F)cc4)CC[C@@H]32)C1 [Compound 57]
pIC50: 6.30 to 7.00

CCOC[C@@]1(O)CC[C@H]2[C@H](CC[C@@H]3[C@@H]2CC[C@]2(C)[C@@H](C(=O)N[C@H](CC)c4ccc(F)cc4)CC[C@@H]32)C1 [Compound 58]
pIC50: < 6.30

CCOC[C@@]1(O)CC[C@H]2[C@H](CC[C@@H]3[C@@H]2CC[C@]2(C)[C@@H](C(=O)N4CCC[C@@H]4c4ncco4)CC[C@@H]32)C1 [Compound 60]
pIC50: < 6.30

CCOC[C@@]1(O)CC[C@H]2[C@H](CC[C@@H]3[C@@H]2CC[C@]2(C)[C@@H](C(=O)N(C)[C@H](C)c4ccc(F)cc4)CC[C@@H]32)C1 [Compound 61]
pIC50: 6.30 to 7.00

CN(CC(=O)[C@H]1CC[C@H]2[C@@H]3CC[C@H]4C[C@](C)(O)CC[C@@H]4[C@H]3CC[C@]12C)c1ccccc1 [Compound 63]
pIC50: 6.30 to 7.00

C[C@@]1(O)CC[C@H]2[C@@H](CC[C@@H]3[C@@H]2CC[C@]2(C)[C@@H](C(=O)CNc4ccccc4)CC[C@@H]32)C1 [Compound 64]
pIC50: 7.00 to 7.30

CCOC[C@]12CC[C@@](C)(O)C[C@@H]1CC[C@H]1[C@@H]3CC[C@H](C(=O)CN(C)c4ccccc4)[C@@]3(C)CC[C@@H]12 [Compound 65]
pIC50: 6.30 to 7.00

CCOC[C@]12CC[C@@](C)(O)C[C@@H]1CC[C@H]1[C@@H]3CC[C@H](C(=O)CNc4ccccc4)[C@@]3(C)CC[C@@H]12 [Compound 66]
pIC50: 7.00 to 7.30

C[C@H](c1ccc(C#N)cc1)N(C)C(=O)[C@H]1CC[C@H]2[C@@H]3CC[C@@H]4C[C@@](O)(C(F)(F)F)CC[C@@H]4[C@H]3CC[C@]12C [Compound 69]
pIC50: 6.30 to 7.00

C[C@@H](c1ccc(C#N)cc1)N(C)C(=O)[C@H]1CC[C@H]2[C@@H]3CC[C@@H]4C[C@@](O)(C(F)(F)F)CC[C@@H]4[C@H]3CC[C@]12C [Compound 70]
pIC50: 6.30 to 7.00

C[C@]12CC[C@](O)(C(F)(F)F)C[C@@H]1CC[C@@H]1[C@@H]2CC[C@]2(C)[C@@H](C(=O)CNc3ccccc3)CC[C@@H]12 [Compound 73]
pIC50: 7.00 to 7.30

CN(CC(=O)[C@H]1CC[C@H]2[C@@H]3CC[C@H]4C[C@@](O)(C(F)(F)F)CC[C@]4(C)[C@H]3CC[C@]12C)c1ccccc1 [Compound 74]
pIC50: < 6.30

COC[C@]12CC[C@@](C)(O)C[C@H]1CC[C@H]1[C@@H]3CC[C@H](C(=O)CN(C)c4ccccc4)[C@@]3(C)CC[C@@H]12 [Compound 75]
pIC50: 7.30 to 8.00

COC[C@]12CC[C@@](C)(O)C[C@H]1CC[C@H]1[C@@H]3CC[C@H](C(=O)CNc4ccccc4)[C@@]3(C)CC[C@@H]12 [Compound 76]
pIC50: > 8.00
